Measurements: publication PMC10688625, “Evaluation of arsenic metabolism and tight junction injury after exposure to arsenite and monomethylarsonous acid using a rat in vitro blood–Brain barrier model” (PLOS ONE, 2023)
Read-outs that look alike come from different tables or passages of the source.

What was measured:
[1] = test system: rat in vitro-BBB model
[2] = test system: ZO-1; assay type: cell-based, rat
[3] = test system: claudin-5; assay type: cell-based, rat; details: 2 μM
[4] = test system: ZO-1; assay type: cell-based, rat; details: 2 μM
[5] = test system: claudin-5; assay type: cell-based, rat
[6] = test system: rat in vitro-BBB model; details: 24 h
[7] = test system: rat in vitro-BBB model; assay type: cell-based
[8] = mouse, in vivo; cited from earlier work
[9] = test system: mouse brain slices; details: cited from earlier work

## C[As](O)O [MMA^III, monomethylarsonous acid]
[1]
  detection of dimethylarsinous acid as metabolite: no dimethylarsinous acid was detected
  fraction oxidized or methylated (converted, detoxified) within the BBB: Approximately 65%
[1]; 0–6 h
  Penetration rate (%) DMA^V: 4.03±0.52%
  Penetration rate (%) MMA^III: 7.63±0.79%
  Penetration rate (%) MMA^V: 8.27±1.55%
  percentage of arsenic in total penetration rate: DMA^V: (28.5) %
[1]; 0–24 h
  Penetration rate (%) DMA^V: 9.01±0.14%
  Penetration rate (%) MMA^III: 13.7±5.09%
  Penetration rate (%) MMA^V: 27.9±3.59%
  percentage of arsenic in total penetration rate: DMA^V: (21.4) %
[2]; 0.1 μM, 6 h
  ZO-1/β-actin: 48.7 ± 25.7
  ZO-1/β-actin ratio for control: 0.60 ± 0.25
[2]; 0.1 μM, 24 h
  ZO-1/β-actin: 41.0 ± 24.5
  ZO-1/β-actin ratio for control: 0.54 ± 0.33
[2]; 1 μM, 6 h
  ZO-1/β-actin: 44.7 ± 26.2
  ZO-1/β-actin ratio for control: 0.55 ± 0.26
[2]; 1 μM, 24 h
  ZO-1/β-actin: 71.6 ± 15.1
  ZO-1/β-actin ratio for control: 0.93 ± 0.19
[2]; 2 μM, 6 h
  ZO-1/β-actin: 16.6 ± 5.59
  ZO-1/β-actin ratio for control: 0.23 ± 0.15
[2]; 2 μM, 24 h
  ZO-1/β-actin: 28.7 ± 13.3
  ZO-1/β-actin ratio for control: 0.37 ± 0.15
[3]; 6 h
  % Claudin-5 Area for control: 46.6 ± 12.6%
[3]; 24 h
  % Claudin-5 Area for control: 37.2 ± 11.4%
[4]; 6 h
  % ZO-1 Area for control: 55.0 ± 11.2%
[4]; 24 h
  % ZO-1 Area for control: 59.1 ± 9.76%
[5]; 0.1 μM, 6 h
  Claudin-5/β-actin: 30.5 ± 3.26
  Claudin-5/β-actin ratio for control: 0.45 ± 0.19
[5]; 0.1 μM, 24 h
  Claudin-5/β-actin: 34.1 ± 25.6
  Claudin-5/β-actin ratio for control: 0.37 ± 0.23
[5]; 1 μM, 6 h
  Claudin-5/β-actin: 25.8 ± 16.7
  Claudin-5/β-actin ratio for control: 0.35 ± 0.16
[5]; 1 μM, 24 h
  Claudin-5/β-actin: 14.5 ± 4.52
  Claudin-5/β-actin ratio for control: 0.16 ± 0.06
[5]; 2 μM, 6 h
  Claudin-5/β-actin: 9.38 ± 5.97
  Claudin-5/β-actin ratio for control: 0.16 ± 0.15
[5]; 2 μM, 24 h
  Claudin-5/β-actin: 4.68 ± 1.30
  Claudin-5/β-actin ratio for control: 0.05 ± 0.02
[6]; 0.1 μM
  Papp of sodium fluorescein: 1.90 ± 0.17 x 10-6 cm2/s
[6]; 1 μM
  Papp of sodium fluorescein: 2.78 ± 0.28 x 10-6 cm2/s
[6]; 2 μM
  Na-F values elevated compared to the control group: approximately 16 fold
  Papp of sodium fluorescein: 34.0 ± 4.97 x 10-6 cm2/s
[7]; 0.1 μM, 6 h
  %TEER: 109.7 ± 16.6%
[7]; 0.1 μM, 24 h
  %TEER: 87.9 ± 13.0%
[7]; 1 μM, 6 h
  %TEER: 61.6 ± 6.19%
[7]; 1 μM, 24 h
  %TEER: 45.6 ± 2.09%
[7]; 2 μM, 6 h
  %TEER: 9.17 ± 4.62%
[7]; 2 μM, 24 h
  %TEER: 3.31 ± 0.67%

## O=[As][O-].[Na+] [sodium arsenite]
[8]
  DMA^V in brain tissue: presence of DMA^V
[9]
  DMA^V formation in mouse brain slices: DMA^V was detected
